Data reported in patent US9963445B2, “Chemical compounds” (SYNGENTA PARTICIPATIONS AG, priority 2013, dated 2018).

These molecules were tested on Setaria faberi (assay: Post-emergence herbicidal activity, glasshouse pot test). Conditions: Application post-emergence, rate 1000 g/ha, evaluated after 13 days.
Assay type: in vivo
Set-up: key: 0 = no damage to plant, 5 = total damage to plant
Method in brief: (§1)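 Damage rated 0 (none) to 5 (total) 13 days after spraying. Plants were treated post-emergence at 8 days after sowing, using an acetone/water (50:50) formulation with 0.5% Tween 20 diluted to an aqueous spray.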
For `COC1=C(C)C(O)N(c2cc(C(C)(C)F)c(-c3ccc(F)cc3)nn2)C1=O` (stereo not drawn) [BI11], the “SETFA herbicidal damage score” value was 5. In the case of `CC#Cc1nnc(N2C(=O)C(OC)=C(C)C2O)cc1C(C)(C)F` (stereo not drawn) [BI12], the “SETFA herbicidal damage score” value is reported as 5. For `C=C(OCC)c1nnc(N2C(=O)C(OC)=C(C)C2O)cc1C(C)(C)F` (stereo not drawn) [BI13], the “SETFA herbicidal damage score” value was 5. In the case of `COC1=C(C)C(O)N(c2cc(C(C)(C)F)c(Cl)nn2)C1=O` (stereo not drawn) [BI14], the “SETFA herbicidal damage score” value is reported as 5.

These molecules were tested on Abutilon theophrasti in the same assay as above. Conditions: Application post-emergence, rate 1000 g/ha, evaluated after 13 days.
Assay type: in vivo
Set-up: key: 0 = no damage to plant, 5 = total damage to plant
Method in brief: as §1
With `COC1=C(C)C(O)N(c2cc(C(C)(C)F)c(-c3ccc(F)cc3)nn2)C1=O` (stereo not drawn) [BI11] the “ABUTH herbicidal damage score” value was 4. For `CC#Cc1nnc(N2C(=O)C(OC)=C(C)C2O)cc1C(C)(C)F` (stereo not drawn) [BI12], the “ABUTH herbicidal damage score” value was 5. For `C=C(OCC)c1nnc(N2C(=O)C(OC)=C(C)C2O)cc1C(C)(C)F` (stereo not drawn) [BI13], the “ABUTH herbicidal damage score” value was 5. `COC1=C(C)C(O)N(c2cc(C(C)(C)F)c(Cl)nn2)C1=O` (stereo not drawn) [BI14] was tested, and the “ABUTH herbicidal damage score” value was 5.

What follows are molecules tested on Alopecurus myosuroides in the same assay as above. Conditions: Application post-emergence, rate 1000 g/ha, evaluated after 13 days.
Assay type: in vivo
Set-up: key: 0 = no damage to plant, 5 = total damage to plant
Method in brief: as §1
With `COC1=C(C)C(O)N(c2cc(C(C)(C)F)c(-c3ccc(F)cc3)nn2)C1=O` (stereo not drawn) [BI11] the “ALOMY herbicidal damage score” value was 4. In the case of `CC#Cc1nnc(N2C(=O)C(OC)=C(C)C2O)cc1C(C)(C)F` (stereo not drawn) [BI12], the “ALOMY herbicidal damage score” value is reported as 4. `C=C(OCC)c1nnc(N2C(=O)C(OC)=C(C)C2O)cc1C(C)(C)F` (stereo not drawn) [BI13] was tested, and the “ALOMY herbicidal damage score” value was 5. With `COC1=C(C)C(O)N(c2cc(C(C)(C)F)c(Cl)nn2)C1=O` (stereo not drawn) [BI14] the “ALOMY herbicidal damage score” value was 5.

These molecules were tested on Echinochloa crus-galli in the same assay as above. Conditions: Application post-emergence, rate 1000 g/ha, evaluated after 13 days.
Assay type: in vivo
Set-up: key: 0 = no damage to plant, 5 = total damage to plant
Method in brief: as §1
With `COC1=C(C)C(O)N(c2cc(C(C)(C)F)c(-c3ccc(F)cc3)nn2)C1=O` (stereo not drawn) [BI11] the “ECHCG herbicidal damage score” value was 4. `CC#Cc1nnc(N2C(=O)C(OC)=C(C)C2O)cc1C(C)(C)F` (stereo not drawn) [BI12] was tested, and the “ECHCG herbicidal damage score” value was 5. For `C=C(OCC)c1nnc(N2C(=O)C(OC)=C(C)C2O)cc1C(C)(C)F` (stereo not drawn) [BI13], the “ECHCG herbicidal damage score” value was 5. With `COC1=C(C)C(O)N(c2cc(C(C)(C)F)c(Cl)nn2)C1=O` (stereo not drawn) [BI14] the “ECHCG herbicidal damage score” value was 5.

These molecules were tested on zea mays in the same assay as above. Conditions: Application post-emergence, rate 1000 g/ha, evaluated after 13 days.
Assay type: in vivo
Set-up: key: 0 = no damage to plant, 5 = total damage to plant
Method in brief: as §1
`COC1=C(C)C(O)N(c2cc(C(C)(C)F)c(-c3ccc(F)cc3)nn2)C1=O` (stereo not drawn) [BI11] was tested, and the “ZEAMX herbicidal damage score” value was 2. For `CC#Cc1nnc(N2C(=O)C(OC)=C(C)C2O)cc1C(C)(C)F` (stereo not drawn) [BI12], the “ZEAMX herbicidal damage score” value was 4. `C=C(OCC)c1nnc(N2C(=O)C(OC)=C(C)C2O)cc1C(C)(C)F` (stereo not drawn) [BI13] was tested, and the “ZEAMX herbicidal damage score” value was 2. `COC1=C(C)C(O)N(c2cc(C(C)(C)F)c(Cl)nn2)C1=O` (stereo not drawn) [BI14] was tested, and the “ZEAMX herbicidal damage score” value was 4.

Each molecule was assayed on Amaranthus retroflexus in the same assay as above. Conditions: Application post-emergence, rate 1000 g/ha, evaluated after 13 days.
Assay type: in vivo
Set-up: key: 0 = no damage to plant, 5 = total damage to plant
Method in brief: as §1
In the case of `COC1=C(C)C(O)N(c2cc(C(C)(C)F)c(-c3ccc(F)cc3)nn2)C1=O` (stereo not drawn) [BI11], the “AMARE herbicidal damage score” value is reported as 5. In the case of `CC#Cc1nnc(N2C(=O)C(OC)=C(C)C2O)cc1C(C)(C)F` (stereo not drawn) [BI12], the “AMARE herbicidal damage score” value is reported as 5. For `C=C(OCC)c1nnc(N2C(=O)C(OC)=C(C)C2O)cc1C(C)(C)F` (stereo not drawn) [BI13], the “AMARE herbicidal damage score” value was 5. With `COC1=C(C)C(O)N(c2cc(C(C)(C)F)c(Cl)nn2)C1=O` (stereo not drawn) [BI14] the “AMARE herbicidal damage score” value was 5.

Each molecule was assayed on Setaria faberi (assay: Pre-emergence herbicidal activity, glasshouse pot test). Conditions: pre-emergence spray, rate 1000 g/ha, evaluated after 13 days, scale 0-5.
Assay type: in vivo
Method in brief: (§2)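 Test species were sown in pots and, after one day under controlled glasshouse conditions, treated with an aqueous spray of the active ingredient in acetone/water containing 0.5% Tween 20. Evaluation followed 13 days later, scoring plant damage from 0 (none) to 5 (total).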
In the case of `COC1=C(C)C(O)N(c2cc(C(C)(C)F)c(-c3ccc(F)cc3)nn2)C1=O` (stereo not drawn) [BI11], the “SETFA damage score, application pre-emergence” value (from here on “SETFA damage score”) is reported as 4. For `CC#Cc1nnc(N2C(=O)C(OC)=C(C)C2O)cc1C(C)(C)F` (stereo not drawn) [BI12], the “SETFA damage score” value was 5. With `C=C(OCC)c1nnc(N2C(=O)C(OC)=C(C)C2O)cc1C(C)(C)F` (stereo not drawn) [BI13] the “SETFA damage score” value was 5. With `COC1=C(C)C(O)N(c2cc(C(C)(C)F)c(Cl)nn2)C1=O` (stereo not drawn) [BI14] the “SETFA damage score” value was 5.

The molecules below were run on Abutilon theophrasti in the same assay as above. Conditions: pre-emergence spray, rate 1000 g/ha, evaluated after 13 days, scale 0-5.
Assay type: in vivo
Method in brief: as §2
`COC1=C(C)C(O)N(c2cc(C(C)(C)F)c(-c3ccc(F)cc3)nn2)C1=O` (stereo not drawn) [BI11] was tested, and the “ABUTH damage score, application pre-emergence” value (“ABUTH damage score” for short) was 4. In the case of `CC#Cc1nnc(N2C(=O)C(OC)=C(C)C2O)cc1C(C)(C)F` (stereo not drawn) [BI12], the “ABUTH damage score” value is reported as 4. For `C=C(OCC)c1nnc(N2C(=O)C(OC)=C(C)C2O)cc1C(C)(C)F` (stereo not drawn) [BI13], the “ABUTH damage score” value was 5. In the case of `COC1=C(C)C(O)N(c2cc(C(C)(C)F)c(Cl)nn2)C1=O` (stereo not drawn) [BI14], the “ABUTH damage score” value is reported as 3.

What follows are molecules tested on Alopecurus myosuroides in the same assay as above. Conditions: pre-emergence spray, rate 1000 g/ha, evaluated after 13 days, scale 0-5.
Assay type: in vivo
Method in brief: as §2
With `COC1=C(C)C(O)N(c2cc(C(C)(C)F)c(-c3ccc(F)cc3)nn2)C1=O` (stereo not drawn) [BI11] the “ALOMY damage score, application pre-emergence” value (“ALOMY damage score” for short) was 2. With `CC#Cc1nnc(N2C(=O)C(OC)=C(C)C2O)cc1C(C)(C)F` (stereo not drawn) [BI12] the “ALOMY damage score” value was 2. `C=C(OCC)c1nnc(N2C(=O)C(OC)=C(C)C2O)cc1C(C)(C)F` (stereo not drawn) [BI13] was tested, and the “ALOMY damage score” value was 4. For `COC1=C(C)C(O)N(c2cc(C(C)(C)F)c(Cl)nn2)C1=O` (stereo not drawn) [BI14], the “ALOMY damage score” value was 3.

These molecules were tested on Echinochloa crus-galli in the same assay as above. Conditions: pre-emergence spray, rate 1000 g/ha, evaluated after 13 days, scale 0-5.
Assay type: in vivo
Method in brief: as §2
`COC1=C(C)C(O)N(c2cc(C(C)(C)F)c(-c3ccc(F)cc3)nn2)C1=O` (stereo not drawn) [BI11] was tested, and the “ECHCG damage score, application pre-emergence” value (“ECHCG damage score” for short) was 2. With `CC#Cc1nnc(N2C(=O)C(OC)=C(C)C2O)cc1C(C)(C)F` (stereo not drawn) [BI12] the “ECHCG damage score” value was 4. With `C=C(OCC)c1nnc(N2C(=O)C(OC)=C(C)C2O)cc1C(C)(C)F` (stereo not drawn) [BI13] the “ECHCG damage score” value was 5. For `COC1=C(C)C(O)N(c2cc(C(C)(C)F)c(Cl)nn2)C1=O` (stereo not drawn) [BI14], the “ECHCG damage score” value was 4.

These molecules were tested on zea mays in the same assay as above. Conditions: pre-emergence spray, rate 1000 g/ha, evaluated after 13 days, scale 0-5.
Assay type: in vivo
Method in brief: as §2
`COC1=C(C)C(O)N(c2cc(C(C)(C)F)c(-c3ccc(F)cc3)nn2)C1=O` (stereo not drawn) [BI11] was tested, and the “ZEAMX damage score, application pre-emergence” value (“ZEAMX damage score” for short) was 2. `CC#Cc1nnc(N2C(=O)C(OC)=C(C)C2O)cc1C(C)(C)F` (stereo not drawn) [BI12] was tested, and the “ZEAMX damage score” value was 3. `C=C(OCC)c1nnc(N2C(=O)C(OC)=C(C)C2O)cc1C(C)(C)F` (stereo not drawn) [BI13] was tested, and the “ZEAMX damage score” value was 2. With `COC1=C(C)C(O)N(c2cc(C(C)(C)F)c(Cl)nn2)C1=O` (stereo not drawn) [BI14] the “ZEAMX damage score” value was 3.

Each molecule was assayed on Amaranthus retroflexus in the same assay as above. Conditions: pre-emergence spray, rate 1000 g/ha, evaluated after 13 days, scale 0-5.
Assay type: in vivo
Method in brief: as §2
In the case of `COC1=C(C)C(O)N(c2cc(C(C)(C)F)c(-c3ccc(F)cc3)nn2)C1=O` (stereo not drawn) [BI11], the “AMARE damage score, application pre-emergence” value (“AMARE damage score” for short) is reported as 5. In the case of `CC#Cc1nnc(N2C(=O)C(OC)=C(C)C2O)cc1C(C)(C)F` (stereo not drawn) [BI12], the “AMARE damage score” value is reported as 5. For `C=C(OCC)c1nnc(N2C(=O)C(OC)=C(C)C2O)cc1C(C)(C)F` (stereo not drawn) [BI13], the “AMARE damage score” value was 5. In the case of `COC1=C(C)C(O)N(c2cc(C(C)(C)F)c(Cl)nn2)C1=O` (stereo not drawn) [BI14], the “AMARE damage score” value is reported as 5.
